pIC50: −log10 of the molar value.

This note sets out measurements from patent US20080318949A1, “Pyrazolopyrimidinone Derivatives, Their Preparation And Their Use” (Topharman Shanghai Co., Ltd, priority 2005, published 2008).

In data set [1] the target is T1, PDE5 from human platelets (Homo sapiens, UniProt O76074).
T1 construct: from tissue; host or cells: human platelets
Put plainly: PDE5 inhibitory activity test (scintillation proximity assay). The class given is biochemical. An excerpt: (§1) The PDE5 and PDE3 were isolated form human platelets, while the PDE6 was isolated form bovine retinas. The enzyme inhibitory activity test conducted immediately after the enzymes had been isolated, using a scintillation proximity assay for the direct detection of AMP/GMP by the TRKQ7100 and TRKQ7090 kit. In summary, the effect of PDE inhibitors was investigated by assaying a fixed amount of enzyme in the presence of varying inhibitor concentrations and low substrate. The final assay volume was made up to 100 μl with 10 μl assay buffer (50 mM Tris/HCl PH 7.5, 8.3 mM MgCl2, 1.7 mM EGTA), and water. Reactions were initiated with enzyme, incubate for 30 minutes at 30° C. and terminated with 50 μl yttrium silicate SPA beads suspension containing zinc sulphate. Shook for 20 minutes and settled for 30 minutes in the dark, then counted on a BECKMAN LS6500 MULTI-PURPOSE SCINTILLATION COUNTER. The IC50 value for the compounds according the present invention was calculated according the counts.
According to the above-mentioned method, the inhibitory activities of some compounds of formula IA and IB according to the invention against PDE5 from human platelets were determined.
A general note: Scintillation proximity formats need no separation of bound from free tracer.

The target in another data set is T2, PDE6 from bovine retina (Bos taurus, UniProt P11541+P23439).
T2 construct: the PDE6 was isolated form bovine retinas; from tissue; host or cells: bovine retina
T2 sequence (P11541 2-856 limits assumed): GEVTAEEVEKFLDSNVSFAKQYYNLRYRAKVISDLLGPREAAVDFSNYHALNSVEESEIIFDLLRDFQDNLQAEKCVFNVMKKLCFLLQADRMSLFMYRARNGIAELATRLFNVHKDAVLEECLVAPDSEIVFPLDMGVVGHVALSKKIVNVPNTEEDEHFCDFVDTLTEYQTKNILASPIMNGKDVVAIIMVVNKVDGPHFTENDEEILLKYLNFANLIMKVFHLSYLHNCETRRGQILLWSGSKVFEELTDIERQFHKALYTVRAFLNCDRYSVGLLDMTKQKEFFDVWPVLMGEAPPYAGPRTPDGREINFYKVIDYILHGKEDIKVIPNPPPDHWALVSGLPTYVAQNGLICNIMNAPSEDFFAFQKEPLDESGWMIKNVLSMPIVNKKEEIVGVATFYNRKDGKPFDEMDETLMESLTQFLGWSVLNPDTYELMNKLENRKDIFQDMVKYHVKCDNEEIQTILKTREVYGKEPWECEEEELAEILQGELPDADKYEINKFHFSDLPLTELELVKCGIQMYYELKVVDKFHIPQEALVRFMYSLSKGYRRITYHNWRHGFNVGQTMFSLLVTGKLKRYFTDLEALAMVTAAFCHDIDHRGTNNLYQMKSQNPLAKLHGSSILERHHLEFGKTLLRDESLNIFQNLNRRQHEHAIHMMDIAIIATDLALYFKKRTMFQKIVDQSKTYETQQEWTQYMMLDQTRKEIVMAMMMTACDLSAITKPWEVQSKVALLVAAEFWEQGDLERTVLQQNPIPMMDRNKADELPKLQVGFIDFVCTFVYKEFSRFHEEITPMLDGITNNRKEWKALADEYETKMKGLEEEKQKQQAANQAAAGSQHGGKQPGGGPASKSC
T2 sequence (P23439 2-850 limits assumed): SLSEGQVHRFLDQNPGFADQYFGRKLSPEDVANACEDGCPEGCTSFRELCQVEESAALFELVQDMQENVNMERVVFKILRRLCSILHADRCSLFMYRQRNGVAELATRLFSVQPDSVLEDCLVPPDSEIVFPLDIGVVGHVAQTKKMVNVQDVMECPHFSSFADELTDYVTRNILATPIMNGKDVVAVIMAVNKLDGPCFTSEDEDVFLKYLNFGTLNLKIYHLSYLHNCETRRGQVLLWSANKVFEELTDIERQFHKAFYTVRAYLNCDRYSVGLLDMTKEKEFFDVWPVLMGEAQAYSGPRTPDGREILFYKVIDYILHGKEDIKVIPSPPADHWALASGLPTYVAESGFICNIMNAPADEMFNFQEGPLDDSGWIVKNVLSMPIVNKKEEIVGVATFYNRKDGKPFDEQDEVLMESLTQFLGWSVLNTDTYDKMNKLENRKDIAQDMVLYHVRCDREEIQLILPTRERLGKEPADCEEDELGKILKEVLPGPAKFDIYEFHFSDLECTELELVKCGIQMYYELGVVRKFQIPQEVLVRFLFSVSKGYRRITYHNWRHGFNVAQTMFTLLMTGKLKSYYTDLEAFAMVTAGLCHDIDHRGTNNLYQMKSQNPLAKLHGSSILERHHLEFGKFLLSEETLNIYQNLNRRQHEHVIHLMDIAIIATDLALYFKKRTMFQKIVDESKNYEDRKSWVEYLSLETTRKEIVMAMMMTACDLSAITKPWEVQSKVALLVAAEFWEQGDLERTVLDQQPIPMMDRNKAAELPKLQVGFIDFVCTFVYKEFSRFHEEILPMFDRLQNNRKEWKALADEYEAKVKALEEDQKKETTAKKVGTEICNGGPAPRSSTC
Description: PDE6 inhibitory activity test (scintillation proximity assay). The format is biochemical. The following applies: for pIC50: PDE6 from bovine retina; for PDE6 IC50/PDE5 IC50: selectivity of PDE5 versus PDE6.
From the text: as §1

Another data set concerns rat corpora cavernosa. Description: Pharmacodynamic test: intracavernous pressure on electric stimulation of the cavernous nerve. The class given is in vivo. The settings on record: anesthetized male SD rats, 5 mg/kg orally, ratio of ICP to MBp. The procedure: The test was carried out based on the methods reported (International Journal of Impotence Research 2002, 14, 251 and The Journal of Urology 1992, 147, 1124). After fasted for 12 hours, 4 male SD rats were randomized into each group. After anesthetizing the rats with sodium pentobarbital (50 mg/kg, i.p.), the penile skin was incised and the prepuce was degloved to expose completely the corpora cavernosa (CC). A needle linked to an electrophysiology instrument was inserted into the CC on the right side in order to measure the intracavernous pressure (ICP). The right carotid artery was cannulated in a similar manner to the polyethylene tube in order to monitor the mean blood pressure (MBp) continuously. […] Electric stimulation was performed at 2 Hz, for 60 s with a pulse duration of 5 ms and 3V using a stimulator. The compounds were administrated orally (5 mg/kg). The change of the ICP and MBp were monitored continuously before and after the administration. The effect of the compounds on the erection induced by electric stimulation was evaluated by the ratio of ICP to MBp. The parameter (ICP/MBp) was used to estimate the influence of the compounds to the rat corpora cavernosa. […] The statistical significance of the differences between groups was calculated using Duncan's multiple comparison.

The next data set has as its system male KM mouse. Put plainly: Acute oral toxicity test. The class given is in vivo. The settings on record: single oral dose of 3 g/kg, 10 or 11 mice per group. The procedure:
In this test male KM mouse weighting 18-22 g were used, and 10 or 11 mouse were assigned randomly to each group. […] The animals were fasted for 12 hours before the administration.

Turning to “1-methyl-5-{2-propoxy-5-[bis(2-nicotinoyloxyethyl)amidosulfonyl]phenyl}-3-n-propyl-1,6-dihydro-7H-pyrazolo[4,3-d]pyrimidin-7-one [Example 3]”, the negative-log IC50 (pIC50) in data set [1] (PDE5 from human platelets) was 10.25; in data set [1] (PDE5 in the PDE6 selectivity table), 10.25; against PDE6 from bovine retina it was 7.48. The “PDE6 IC50/PDE5 IC50” value on PDE6 from bovine retina is on record as 588.
As to `CCCOc1ccc(S(=O)(=O)N(CCOC(C)=O)CCOC(C)=O)cc1-c1nc2c(CCC)nn(C)c2c(=O)[nH]1` [Example 1, 1-methyl-5-{2-propyloxy-5-[bis(2-acetoxyethyl)amidosulfonyl]phenyl}-3-n-propyl-1,6-dihydro-7H-pyrazolo[4,3-d]pyrimidin-7-one], in data set [1] (PDE5 from human platelets), the pIC50 is 10.10. Moreover, on PDE6 from bovine retina, the pIC50 is 7.77 and the “PDE6 IC50/PDE5 IC50” value worked out at 210.
For `CCCOc1ccc(S(=O)(=O)N(CCO)CCO)cc1-c1nc2c(CCC)nn(C)c2c(=O)[nH]1` [Example 2, 1-methyl-5-{2-propyloxy-5-[bis(2-hydroxyethyl)amidosulfonyl]phenyl}-3-n-propyl-1,6-dihydro-7H-pyrazolo[4,3-d]pyrimidin-7-one], in that order: 9.88, 7.25 and 425.
The like results for `CCCc1nn(C)c2c(=O)[nH]c(-c3cc(S(=O)(=O)N(CCOC(C)=O)CCOC(C)=O)ccc3OCC)nc12` [Example 4, 1-methyl-5-{2-ethoxy-5-[bis(2-acetoxyethyl)amidosulfonyl]phenyl}-3-n-propyl-1,6-dihydro-7H-pyrazolo[4,3-d]pyrimidin-7-one] were, in that order, 8.47, 6.56 and 82.1.
For the compound `CCCc1nn(C)c2c(=O)[nH]c(-c3cc(S(=O)(=O)N(CCOC(=O)c4cccnc4)CCOC(=O)c4cccnc4)ccc3OCC)nc12` [Example 5, 1-methyl-5-{2-ethoxy-5-[bis(2-nicotinoyloxyethyl)amidosulfonyl]phenyl}-3-n-propyl-1,6-dihydro-7H-pyrazolo[4,3-d]pyrimidin-7-one], in data set [1] (PDE5 from human platelets), the pIC50 is 8.97. Besides, on PDE6 from bovine retina, the pIC50 was 6.88 and the “PDE6 IC50/PDE5 IC50” value is 131.
The like results for `CCCOc1ccc(S(=O)(=O)N(CCN2CCOCC2)Cc2ccccc2)cc1-c1nc2c(CCC)nn(C)c2c(=O)[nH]1` [Example 24, 1-methyl-5-{2-propoxy-5-[[1-benzyl-1-(2-morpholin-1-yl)ethyl]amidosulfonyl]phenyl}-3-n-propyl-1,6-dihydro-7H-pyrazolo[4,3-d]pyrimidin-7-one] were, in that order, 10.06, 8.24 and 65.6.
For `CCCc1nn(C)c2c(=O)[nH]c(-c3cc(S(=O)(=O)N(CCN4CCOCC4)Cc4ccccc4)ccc3OCC)nc12` [Example 25, 1-methyl-5-{2-ethoxy-5-[[1-benzyl-1-(2-morpholin-1-yl)ethyl]amidosulfonyl]phenyl}-3-n-propyl-1,6-dihydro-7H-pyrazolol[4,3-d]pyrimidin-7-one], in that order: 9.47, 7.03 and 279.
In the case of `CCCOc1ccc(S(=O)(=O)N(C)CCN(C)C)cc1-c1cc2c(CCC)nn(C)c2c(=O)[nH]1` [Example 75, 1-methyl-5-{2-propoxy-5-[[1-methyl-1-(2-dimethylamino)]amidosulfonyl]phenyl}-3-n-propyl-1,6-dihydro-7H-pyrazolo[4,3-d]pyrimidin-7-one], in the data set on rat corpora cavernosa, the ICP/BP is 74.2 ± 7.8.
Compound `CCCOc1ccc(S(=O)(=O)N(C)CCN2CCCCC2)cc1-c1nc2c(CCC)nn(C)c2c(=O)[nH]1` [Example 78, 1-methyl-5-{2-propoxy-5-[[1-methyl-1-(2-piperidin-1-yl)ethyl]amidosulfonyl]phenyl}-3-n-propyl-1,6-dihydro-7H-pyrazolo[4,3-d]pyrimidin-7-one] had a pIC50 in data set [1] (PDE5 from human platelets) of 8.06. The ICP/BP with rat corpora cavernosa is reported as 71.6 ± 8.3.
For `CCCOc1ccc(S(=O)(=O)N(CCO)CCN2CCOCC2)cc1-c1cc2c(CCC)nn(C)c2c(=O)[nH]1` [Example 95, 1-methyl-5-{2-propoxy-5-[[1-(2-hydroxyethyl)-1-(2-morpholin-1-yl)ethyl]amidosulfonyl]phenyl}-3-n-propyl-1,6-dihydro-7H-pyrazolo[4,3-d]pyrimidin-7-one], in the data set on rat corpora cavernosa, the ICP/BP is listed as 57.2 ± 10.1.
In the data set on male KM mouse, `CCCOc1ccc(S(=O)(=O)N(CCCO)CCCOC)cc1-c1nc2c(CCC)nn(C)c2c(=O)[nH]1` [Example 99, 1-methyl-5-{2-propoxy-5-[[1-(3-methoxypropyl)-1-(3-hydroxypropyl)]amidosulfonyl]phenyl}-3-n-propyl-1,6-dihydro-7H-pyrazolo[4,3-d]pyrimidin-7-one] registered a Number of death of 1 and a mortality rate of 10%. For the same compound, the pIC50 in data set [1] (PDE5 from human platelets) was 8.39. The ICP/BP in the data set with rat corpora cavernosa stood at 56.2 ± 9.3.
Turning to `CCCc1nn(C)c2c(=O)[nH]c(-c3cc(S(=O)(=O)N4CCN(C)CC4)ccc3OCC)nc12` [sildenafil, Sildenafil, reference compound], in the data set on male KM mouse, the Number of death was determined as 6 and the mortality rate was 60%. Moreover, the ICP/BP in the data set on rat corpora cavernosa is 80.1 ± 5.1.

A word on the pIC50: it is −log10 of the IC50, conventionally taken in molar units. A higher pIC50 goes with a small IC50.
